Columns and labels:
[1] = target: T1, ACE2 (Rattus norvegicus, UniProt Q5EGZ1); experiment: Stomach tissue homogenates spiked with excess GL1001, ACE2 fluorescence assay; assay type: biochemical
T1 construct: from tissue; host or cells: rat stomach (excluding forestomach) homogenate
Procedure: Three hours after diclofenac treatment, all animals were sacrificed and stomachs were removed and imaged to determine the severity of gastric damage. Additionally, stomach tissue samples were taken to assess disease activity and pharmacodynamic effects. Gastric damage scores were determined from photographic images (Ma & Wallace (2003) Am. J. Physiol. Gastrointest. Liver Physiol. 279; 341-346). Removed stomachs were opened along the greater curvature, pinned out on a wax block, and photographed along a 25 mm ruler reference with a digital 35 mm camera. The lesion area was then determined using enlarged images and computer software (www.scioncorp.co/pages/scion_image_windows.htm) that allows superimposed drawing of the perimeter of a wound and calculation of the area based on the ruler reference. Stomach samples (excluding forestomach) were used for measurements of PGE2 concentration, MPO activity and ACE2 activity. […] Concentration of PGE2 from stomach tissue samples was performed as described by Souza et al. (2003), supra, and quantification was obtained by LC-MS. […] Last, the extent of inhibition of ACE2 activity was determined to establish whether GL1001 was effective in inhibiting its ACE2 target in stomach tissues. […]

[2] = system: gastric PGE2 synthesis; experiment: Acute indomethacin-induced gastric toxicity in rats: gastric PGE2 synthesis; assay type: in vivo, rat; conditions: indomethacin 20 mg/kg p.o.
Procedure: A study was conducted to determine whether GL1001 would inhibit acute NSAID (indomethacin)-induced gastric toxicity in a rat model (Wallace et al. (1998) Gastroenterol. 115:101-109). Several modes of treatment with GL1001 or vehicle were employed, which included administration via drinking water, oral administration and subcutaneous administration as shown in Table 4. Irrespective of the route of drug or vehicle administration, male Wistar rats were deprived of food for 16 h prior to oral administration of 20 mg/kg indomethacin (Sigma) or vehicle (5% w/v sodium bicarbonate; 1 ml/kg). Three hours later the rats were sacrificed and the severity of gastric damage was blindly scored. This involved measurement of the lengths (in mm) of all hemorrhagic erosions and summing these to give a “gastric damage score” for each stomach. Samples of the stomach were taken for measurement of prostaglandin E2 (PGE2) synthesis as described by Wallace et al. (1998), supra, and myeloperoxidase activity as described by Souza et al. (2003) Am. J. Physiol. 285:[…]-61. Myeloperoxidase is an enzyme found in all cells of mycloid origin, but particularly enriched within neutrophils. It is therefore used as a biochemical marker of granulocyte infiltration into tissue. Each group consisted of 6 rats. As a negative control, one group received vehicle pretreatments (in the drinking water and by oral gavage) and then received vehicle instead of indomethacin. […] [table] In the experiments where GL1001 (or vehicle) was added to drinking water, the rats were provided with the modified drinking water for 2 days prior to administration of indomethacin (or vehicle). This included the period when the rats were deprived of food. GL1001 was prepared in 0.1M citrate buffer before being added to the drinking water. Based on average water consumption by rats, this was aimed at providing a daily dose of GL1100 of 1200 mg/kg (water consumption was monitored for several days prior to initiation of the study). Oral or subcutaneous administration of GL1001 (or vehicle) was performed 30 minutes prior to administration of indomethacin. Data are expressed as mean±SEM. When two groups of data were compared, a Student's t-test was used. When more than two groups of data were compared, a one-way analysis of variance followed by the Newman-Keuls test was used. An associated probability of less than 5% was considered statistically significant.

T1 sequence (Q5EGZ1 18-805): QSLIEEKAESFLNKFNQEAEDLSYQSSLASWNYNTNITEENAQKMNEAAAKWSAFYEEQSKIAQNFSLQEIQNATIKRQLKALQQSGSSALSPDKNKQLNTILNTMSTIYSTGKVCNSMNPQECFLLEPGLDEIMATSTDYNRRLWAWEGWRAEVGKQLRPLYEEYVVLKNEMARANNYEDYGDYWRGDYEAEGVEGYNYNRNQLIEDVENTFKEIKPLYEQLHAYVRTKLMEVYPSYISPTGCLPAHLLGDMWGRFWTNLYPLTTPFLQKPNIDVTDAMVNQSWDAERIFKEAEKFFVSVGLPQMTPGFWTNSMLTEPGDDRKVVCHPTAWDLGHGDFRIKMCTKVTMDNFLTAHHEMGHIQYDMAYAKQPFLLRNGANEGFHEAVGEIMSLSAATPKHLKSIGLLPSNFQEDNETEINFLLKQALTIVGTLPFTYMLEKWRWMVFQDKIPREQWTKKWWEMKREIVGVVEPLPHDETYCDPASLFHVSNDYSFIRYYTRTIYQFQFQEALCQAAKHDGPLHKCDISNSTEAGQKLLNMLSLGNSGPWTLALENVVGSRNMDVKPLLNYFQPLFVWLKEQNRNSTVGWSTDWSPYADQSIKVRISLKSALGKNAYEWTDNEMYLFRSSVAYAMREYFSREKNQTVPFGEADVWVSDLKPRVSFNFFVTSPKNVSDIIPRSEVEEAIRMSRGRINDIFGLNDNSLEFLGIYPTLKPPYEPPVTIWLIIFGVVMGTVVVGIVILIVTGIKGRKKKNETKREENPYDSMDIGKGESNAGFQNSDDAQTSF

`CC(C)C[C@H](N[C@@H](Cc1cncn1Cc1cc(Cl)cc(Cl)c1)C(=O)O)C(=O)O` [GL1001, (S,S)-2-[1-carboxy-2-[3-(3,5-dichlorobenzyl)-3H-imidazol-4-yl]-ethylamino]-4-methylpentanoic acid] was tested, and the “further inhibition of ACE2 on spiking” value ([1]; tissue samples of Group C (dosed in vivo with GL1001) spiked with excess GL1001) was “no further inhibition”, the “decrease in the fluorescence signal (ACE2 specific activity)” value ([1]; tissue samples of Groups A and B spiked with vast excess of GL1001 (>IC90)) was 40-50% and the “Gastric PGE2 synthesis” value ([2]; Group A: GL1001 in drinking water, vehicle Group B 3.83 ± 0.98) was 5.31 ± 1.54 ng/mg. The “Gastric PGE2 synthesis” value ([2]; Group C: GL1001 p.o. and in drinking water, vehicle Group D 3.07 ± 0.55) was 2.37 ± 0.51 ng/mg, the “Gastric PGE2 synthesis” value ([2]; Group F: GL1001 s.c. and in drinking water, vehicle Group G 3.60 ± 0.32) was 3.57 ± 0.59 ng/mg and the “Gastric PGE2 synthesis” value ([2]; Group H: GL1001 p.o., vehicle Group I 6.08 ± 1.00) was 4.44 ± 0.40 ng/mg.
